In patent publication US12084436B2, “Heterocyclic compound” (Takeda Pharmaceutical Company Limited, priority 2019, dated 2024) one finds inhibition data, which are given here for 24 compounds.

In this assay the target is T1, HDAC6 enzyme (Homo sapiens, UniProt Q9UBN7).
T1 construct: prepared by transducing full length HDAC6 gene into Sf-9 insect cells; GST; purchased SignalChem; host or cells: Sf-9 insect cells
T1 sequence (Q9UBN7 1-1215): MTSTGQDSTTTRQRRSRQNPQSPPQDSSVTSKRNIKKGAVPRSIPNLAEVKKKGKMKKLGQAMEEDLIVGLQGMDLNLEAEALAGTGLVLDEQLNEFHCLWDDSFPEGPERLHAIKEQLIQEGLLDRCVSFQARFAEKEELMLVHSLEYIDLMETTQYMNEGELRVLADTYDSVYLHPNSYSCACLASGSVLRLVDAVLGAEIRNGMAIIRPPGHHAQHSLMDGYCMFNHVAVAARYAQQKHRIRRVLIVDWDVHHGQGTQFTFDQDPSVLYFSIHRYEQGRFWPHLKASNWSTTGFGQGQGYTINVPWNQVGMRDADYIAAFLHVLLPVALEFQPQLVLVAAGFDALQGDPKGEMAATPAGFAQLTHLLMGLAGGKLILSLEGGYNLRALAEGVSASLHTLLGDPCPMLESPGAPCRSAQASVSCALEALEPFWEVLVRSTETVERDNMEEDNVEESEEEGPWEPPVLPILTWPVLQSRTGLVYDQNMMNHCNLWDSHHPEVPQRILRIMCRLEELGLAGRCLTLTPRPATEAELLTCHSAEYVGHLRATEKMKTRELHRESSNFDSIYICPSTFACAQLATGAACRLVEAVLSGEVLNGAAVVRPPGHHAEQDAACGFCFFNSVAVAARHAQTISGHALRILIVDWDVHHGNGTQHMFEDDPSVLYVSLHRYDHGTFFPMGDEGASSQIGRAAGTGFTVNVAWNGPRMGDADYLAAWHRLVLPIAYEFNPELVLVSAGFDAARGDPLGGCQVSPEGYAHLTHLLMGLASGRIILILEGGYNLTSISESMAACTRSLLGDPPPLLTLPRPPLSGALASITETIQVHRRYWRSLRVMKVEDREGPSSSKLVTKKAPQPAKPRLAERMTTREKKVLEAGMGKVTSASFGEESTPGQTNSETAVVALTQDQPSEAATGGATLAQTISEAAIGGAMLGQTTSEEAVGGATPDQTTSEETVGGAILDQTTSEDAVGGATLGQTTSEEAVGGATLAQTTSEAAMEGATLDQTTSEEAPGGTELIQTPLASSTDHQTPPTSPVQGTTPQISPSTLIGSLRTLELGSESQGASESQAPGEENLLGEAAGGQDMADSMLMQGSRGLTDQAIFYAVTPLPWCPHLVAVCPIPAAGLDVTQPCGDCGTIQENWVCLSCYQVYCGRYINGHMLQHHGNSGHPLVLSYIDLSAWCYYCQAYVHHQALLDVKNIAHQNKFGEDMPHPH
As to the kind of experiment: HDAC6 enzyme inhibitory assay (HDAC-Glo I/II Assay kit, luminescence). Conditions: 10 μM test compound; wells without enzyme = 100% inhibition; read-out: HDAC6 inhibitory rate (%) (10 μM). Type of assay: biochemical. In a few lines:
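Full-length human HDAC6, GST-purified from Sf-9 cells, was preincubated with compound for 60 min at room temperature in Tris-HCl pH 7.5 buffer with glutathione and Tween-20. Substrate-developer was then added, and luminescence was read after 20 min at room temperature. Inhibition was expressed relative to no-enzyme wells, taken as 100% inhibition.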

For the compound `O=C1c2cc(-c3nnc(C(F)F)o3)ccc2CN1NCc1cnn(C2CC2)c1` [Example 9c, 2-{[(1-cyclopropyl-1H-pyrazol-4-yl)methyl]amino}-6-[5-(difluoromethyl)-1,3,4-oxadiazol-2-yl]-2,3-dihydro-1H-isoindol-1-one], the inhibition at 10 µM was 97%.
For the compound `O=C1c2cc(-c3nnc(C(F)F)o3)cnc2CN1N(Cc1ccc(F)cc1)CC1CCOCC1` [Example 71c, 3-[5-(difluoromethyl)-1,3,4-oxadiazol-2-yl]-6-{[(4-fluorophenyl)methyl][(oxan-4-yl)methyl]amino}-6,7-dihydro-5H-pyrrolo[3,4-b]pyridin-5-one], the inhibition at 10 µM turned out to be 100%.
For `O=C1c2cc(-c3nnc(C(F)F)o3)ccc2CN1N(Cc1ccc(F)cc1)CC1CCOCC1` [Example 2c, 6-[5-(difluoromethyl)-1,3,4-oxadiazol-2-yl]-2-{[(4-fluorophenyl)methyl][(oxan-4-yl)methyl]amino}-2,3-dihydro-1H-isoindol-1-one], the inhibition at 10 µM amounted to 99%.
To `Fc1cccc(Cc2cncnc2-c2cc(-c3nnc(C(F)F)o3)ccn2)c1` [Example 90a, 4-{4-[5-(difluoromethyl)-1,3,4-oxadiazol-2-yl]pyridin-2-yl}-5-[(3-fluorophenyl)methyl]pyrimidine] belongs 98%; to `CN1C(=O)c2cc(-c3nnc(C(F)F)o3)ccc2OC1(C)c1ccc(C#N)cc1` (stereo not drawn) [Example 20b, 4-{6-[5-(difluoromethyl)-1,3,4-oxadiazol-2-yl]-2,3-dimethyl-4-oxo-3,4-dihydro-2H-1,3-benzoxazin-2-yl}benzonitrile], 99%; to `FC(F)c1nnc(-c2ccnc(-c3nc(Cl)cn3Cc3ccccn3)c2)o1` [Example 39a, 2-{4-chloro-1-[(pyridin-2-yl)methyl]-1H-imidazol-2-yl}-4-[5-(difluoromethyl)-1,3,4-oxadiazol-2-yl]pyridine], 98%.
For `CN(CCOCc1ccccc1)N1Cc2ccc(-c3nnc(C(F)F)o3)cc2C1=O` [Example 48c, 2-{[2-(benzyloxy)ethyl](methyl)amino}-6-[5-(difluoromethyl)-1,3,4-oxadiazol-2-yl]-2,3-dihydro-1H-isoindol-1-one], the inhibition at 10 µM is 99%.
Regarding `Fc1cc(-c2nnc(C(F)F)o2)cc(-c2nccn2CC2CCC(F)(F)CC2)c1` [Example 28a, 2-(3-{1-[(4,4-difluorocyclohexyl)methyl]-1H-imidazol-2-yl)-5-fluorophenyl)-5-(difluoromethyl)-1,3,4-oxadiazole], the inhibition at 10 µM was found to be 99%.
Under `CN(C(=O)OC(C)(C)C)N1Cc2ccc(-c3nnc(C(F)F)o3)cc2C1=O` [Example 38c, tert-butyl {6-[5-(difluoromethyl)-1,3,4-oxadiazol-2-yl]-1-oxo-1,3-dihydro-2H-isoindol-2-yl}methylcarbamate] stands 97%; under `COCC1(c2ccccc2)Oc2ccc(-c3nnc(C(F)F)o3)cc2C(=O)N1C` (stereo not drawn) [Example 51b, 6-[5-(difluoromethyl)-1,3,4-oxadiazol-2-yl]-2-(methoxymethyl)-3-methyl-2-phenyl-2,3-dihydro-4H-1,3-benzoxazin-4-one], 99%; under `O=C1c2cc(-c3nnc(C(F)F)o3)ccc2CN1N(Cc1cnn(C2CC2)c1)Cc1cnn(C2CC2)c1` [Example 10c, 2-{bis[(1-cyclopropyl-1H-pyrazol-4-yl)methyl]amino}-6-[5-(difluoromethyl)-1,3,4-oxadiazol-2-yl]-2,3-dihydro-1H-isoindol-1-one], 97%.
To `Fc1cc(-c2nnc(C(F)F)o2)cc(-c2ncccc2OCc2ccccc2)c1` [Example 5a, 3-(benzyloxy)-2-{3-[5-(difluoromethyl)-1,3,4-oxadiazol-2-yl]-5-fluorophenyl}pyridine] belongs 98%; to `Fc1cccc(Cn2ncnc2-c2cc(-c3nnc(C(F)F)o3)ccn2)c1` [Example 85a, 4-[5-(difluoromethyl)-1,3,4-oxadiazol-2-yl]-2-{1-[(3-fluorophenyl)methyl]-1H-1,2,4-triazol-5-yl}pyridine], 101%; to `CN1C(=O)c2cc(-c3nnc(C(F)F)o3)ccc2OC1(C)c1ccc(C(F)(F)F)cc1` (stereo not drawn) [Example 17b, 6-[5-(difluoromethyl)-1,3,4-oxadiazol-2-yl]-2,3-dimethyl-2-[4-(trifluoromethyl)phenyl]-2,3-dihydro-4H-1,3-benzoxazin-4-one], 100%.
Regarding `CCS(=O)(=O)N(Cc1ccc(F)cc1)N1Cc2ccc(-c3nnc(C(F)F)o3)cc2C1=O` [Example 27c, N-{6-[5-(difluoromethyl)-1,3,4-oxadiazol-2-yl]-1-oxo-1,3-dihydro-2H-isoindol-2-yl}-N-[(4-fluorophenyl)methyl] ethanesulfonamide], the inhibition at 10 µM stood at 99%.
`CN(Cc1cc(Cl)ccc1O)N1Cc2ccc(-c3nnc(C(F)F)o3)cc2C1=O` [Example 42c, 2-{[(5-chloro-2-hydroxyphenyl)methyl](methyl)amino}-6-[5-(difluoromethyl)-1,3,4-oxadiazol-2-yl]-2,3-dihydro-1H-isoindol-1-one]: the inhibition at 10 µM is 98%.
With `Cn1ccc(Cn2ccnc2-c2cc(F)cc(-c3nnc(C(F)F)o3)c2)n1` [Example 23a, 2-(difluoromethyl)-5-(3-fluoro-5-{1-[(1-methyl-1H-pyrazol-3-yl)methyl]-1H-imidazol-2-yl}phenyl)-1,3,4-oxadiazole], the inhibition at 10 µM stood at 96%.
Regarding `CN1C(=O)c2cc(-c3nnc(C(F)F)o3)ccc2OC1(C)C1CCCCC1` (stereo not drawn) [Example 14b, 2-cyclohexyl-6-[5-(difluoromethyl)-1,3,4-oxadiazol-2-yl]-2,3-dimethyl-2,3-dihydro-4H-1,3-benzoxazin-4-one], the inhibition at 10 µM was 98%.
In the case of `CCN1C(=O)c2cc(-c3nnc(C(F)F)o3)ccc2OC1(C)c1ccc(F)cc1` (stereo not drawn) [Example 45b, 6-[5-(difluoromethyl)-1,3,4-oxadiazol-2-yl]-3-ethyl-2-(4-fluorophenyl)-2-methyl-2,3-dihydro-4H-1,3-benzoxazin-4-one], the inhibition at 10 µM was 100%.
Take `O=C1NN(C2CCC(F)(F)CC2)Cc2ccc(-c3nnc(C(F)F)o3)cc21` [Example 29b, 3-(4,4-difluorocyclohexyl)-7-[5-(difluoromethyl)-1,3,4-oxadiazol-2-yl]-3,4-dihydrophthalazin-1(2H)-one]: the inhibition at 10 µM worked out at 99%.
Take `Cc1ccc(Cn2ccnc2-c2cc(-c3nnc(C(F)F)o3)ccn2)cc1` [Example 78a]: the inhibition at 10 µM was 103%.
With `O=C1OCC(Cc2ccccn2)N1c1cc(F)cc(-c2nnc(C(F)F)o2)c1` (stereo not drawn) [Example 41a, 3-{3-[5-(difluoromethyl)-1,3,4-oxadiazol-2-yl)-5-fluorophenyl}-4-[(pyridin-2-yl)methyl]-1,3-oxazolidin-2-one], the inhibition at 10 µM is 21%.
To `COC(=O)c1ccccc1CN(C)N1Cc2ccc(-c3nnc(C(F)F)o3)cc2C1=O` [Example 44c, methyl 2-{[{6-[5-(difluoromethyl)-1,3,4-oxadiazol-2-yl]-1-oxo-1,3-dihydro-2H-isoindol-2-yl}(methyl)amino]methyl}benzoate] belongs 102%; to `CN(Cc1ccccc1Oc1cnccn1)N1Cc2ccc(-c3nnc(C(F)F)o3)cc2C1=O` [Example 59c, 6-[5-(difluoromethyl)-1,3,4-oxadiazol-2-yl]-2-[methyl({2-[(pyrazin-2-yl)oxy]phenyl}methyl)amino]-2,3-dihydro-1H-isoindol-1-one], 101%.
